How the values were obtained:
Test in all cases: combination Emax (second highest fraction inhibited in the dose matrix, 72 h); higher = more inhibition; extreme values may be limits of the assay
[1] = tested on: NCI-H747 (Colorectal Carcinoma)
Method in brief: (§1)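 Cell lines in DMEM/F12 or RPMI with 10% FBS were plated in 1536-well plates, held 24 hours at 37°C, 5% CO2, then given two-drug dose matrices for 72 hours (DMSO typically 0.2%). Viability was read by CellTiter-Glo 2.0 luminescence and scaled as inhibition from 0 (vehicle wells) to 1 (blank wells). Combination Emax is the second-highest inhibition in the matrix; Bliss excess is observed combination effect minus expected EA + EB − EA·EB, EA and EB being single-agent effects.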

[2] = tested on: CAL-54 (Kidney Carcinoma)
Method in brief: as §1

[3] = tested on: TE-4 (Esophageal Squamous Cell Carcinoma)
Method in brief: as §1

[4] = tested on: UMC-11 (Other Solid Carcinomas)
Method in brief: as §1

[5] = tested on: RT-112 (Bladder Carcinoma)
Method in brief: as §1

[6] = tested on: 8305C (Thyroid Gland Carcinoma)
Method in brief: as §1

Mewo (Melanoma) = tested on: Mewo (Melanoma)
Method in brief: as §1

[7] = tested on: 639-V (Bladder Carcinoma)
Method in brief: as §1

[8] = tested on: CAL-51 (Breast Carcinoma)
Method in brief: as §1

NCI-H2461 (Mesothelioma) = tested on: NCI-H2461 (Mesothelioma)
Method in brief: as §1

[9] = tested on: SW1116 (Colorectal Carcinoma)
Method in brief: as §1

COLO-829 (Melanoma) = tested on: COLO-829 (Melanoma)
Method in brief: as §1

[10] = tested on: LU-139 (Small Cell Lung Carcinoma)
Method in brief: as §1

HMV-II (Melanoma) = tested on: HMV-II (Melanoma)
Method in brief: as §1

[11] = tested on: RPMI-6666 (Non-Cancerous)
Method in brief: as §1

[12] = tested on: Hs-633T (Other Solid Carcinomas)
Method in brief: as §1

[13] = tested on: SU-DHL-6 (B-Cell Non-Hodgkin's Lymphoma)
Method in brief: as §1

[14] = tested on: KARPAS-231 (B-Cell Non-Hodgkin's Lymphoma)
Method in brief: as §1

[15] = tested on: PCI-30 (Head and Neck Carcinoma)
Method in brief: as §1

Row | Compound | combination Emax [1] | combination Emax [2] | combination Emax [3] | combination Emax [4] | combination Emax [5] | combination Emax [6] | combination Emax (Mewo (Melanoma)) | combination Emax [7] | combination Emax [8] | combination Emax (NCI-H2461 (Mesothelioma)) | combination Emax [9] | combination Emax (COLO-829 (Melanoma)) | combination Emax [10] | combination Emax (HMV-II (Melanoma)) | combination Emax [11] | combination Emax [12] | combination Emax [13] | combination Emax [14] | combination Emax [15]
1 | C[C@@H](c1ccc2nccn2c1)n1nnc2ncc(-c3cnn(C)c3)nc21 [Savolitinib] + CC1(C)CCC(CN2CCN(c3ccc(C(=O)NS(=O)(=O)c4ccc(NCC5CCOCC5)c([N+](=O)[O-])c4)c(Oc4cnc5[nH]ccc5c4)c3)CC2)=C(c2ccc(Cl)cc2)C1 [Venetoclax] (first compound max 1 µM, 7x7, partner max 1 µM) | 0.181 | 0.143 | 0.145 | 0.13 | 0.156 | 0.217 | 0.194 | 0.121 | 0.113 | 0.301 | 0.145 | 0.209 | 0.281 | 0.12 | 0.243 | 0.16 | 0.465 | 0.866 | 0.143
2 | NC1(C(=O)N[C@@H](CCO)c2ccc(Cl)cc2)CCN(c2ncnc3[nH]ccc23)CC1 [Capivasertib] + C[C@@H]1COCCN1C2=NC(=NC(=C2)C3(CC3)[S@](=N)(=O)C)C4=C5C=CNC5=NC=C4 [AZD6738] (first compound max 10 µM, 7x7, partner max 10 µM) | 0.626 | 0.813 | 0.818 | 0.67 | 0.62 | 0.683 | 0.557 | 0.496 | 0.936 | 0.797 | 0.227 | 0.563 | 0.25 | 0.465 | 0.775 | 0.894 | 1 | 0.691 | 0.482
3 | NC1(C(=O)N[C@@H](CCO)c2ccc(Cl)cc2)CCN(c2ncnc3[nH]ccc23)CC1 [Capivasertib] + CC(=O)c1c(C)c2cnc(Nc3ccc(N4CCNCC4)cn3)nc2n(C2CCCC2)c1=O [Palbociclib] (first compound max 10 µM, 7x7, partner max 10 µM) | 0.795 | 0.658 | 0.826 | 0.553 | 0.415 | 0.469 | 0.493 | 0.299 | 0.55 | 0.467 | 0.136 | 0.356 | 0.0872 | 0.524 | 0.675 | 0.707 | 1 | 0.129 | 0.291
4 | COc1nnc2ccc(N3CCC(c4ccc(OCCN5CCN(C)C(=O)[C@H]5C)cc4)CC3)nn12 [AZD5153] + C=CCn1c(=O)c2cnc(Nc3ccc(N4CCN(C)CC4)cc3)nc2n1-c1cccc(C(C)(C)O)n1 [AZD1775] (first compound max 1 µM, partner max 1 µM) | 0.782 | 0.832 | 0.892 | 0.9 | 0.661 | 0.674 | 0.645 | 0.714 | 0.956 | 0.655 | 0.397 | 0.283 | 0.89 | 0.709 | 0.828 | 0.798 | 0.941 | 0.978 | 0.395
5 | NC1(C(=O)N[C@@H](CCO)c2ccc(Cl)cc2)CCN(c2ncnc3[nH]ccc23)CC1 [Capivasertib] + COc1nnc2ccc(N3CCC(c4ccc(OCCN5CCN(C)C(=O)[C@H]5C)cc4)CC3)nn12 [AZD5153] (first compound max 10 µM, 7x7, partner max 1 µM) | 0.855 | 0.775 | 0.851 | 0.768 | 0.383 | 0.495 | 0.433 | 0.622 | 0.651 | 0.526 | 0.245 | 0.272 | 0.864 | 0.588 | 0.815 | 0.519 | 1 | 0.229 | 0.366
6 | NC1(C(=O)N[C@@H](CCO)c2ccc(Cl)cc2)CCN(c2ncnc3[nH]ccc23)CC1 [Capivasertib] + Cn1cnc2c(F)c(Nc3ccc(Br)cc3Cl)c(C(=O)NOCCO)cc21 [Selumetinib] (first compound max 10 µM, 7x7, partner max 10 µM) | 0.909 | 0.611 | 0.961 | 0.279 | 0.475 | 0.527 | 0.589 | 0.366 | 0.596 | 0.569 | 0.453 | 0.818 | 0.0716 | 0.838 | 0.737 | 0.633 | 1 | 0.0035 | 0.342
7 | COc1nnc2ccc(N3CCC(c4ccc(OCCN5CCN(C)C(=O)[C@H]5C)cc4)CC3)nn12 [AZD5153] + CCN(CCO)CCCOc1ccc2c(Nc3cc(CC(=O)Nc4cccc(F)c4)[nH]n3)ncnc2c1 [AZD2811] (first compound max 1 µM, 7x7, partner max 1 µM) | 0.734 | 0.778 | 0.467 | 0.843 | 0.357 | 0.594 | 0.593 | 0.681 | 0.807 | 0.592 | 0.397 | 0.3 | 0.903 | 0.588 | 0.634 | 0.746 | 0.903 | 0.514 | 0.41
8 | Cc1nc(Nc2ncc(C(=O)Nc3c(C)cccc3Cl)s2)cc(N2CCN(CCO)CC2)n1 [Dasatinib] + CC(=O)Nc1cccc(-n2c(=O)n(C3CC3)c(=O)c3c(Nc4ccc(I)cc4F)n(C)c(=O)c(C)c32)c1 [Trametinib] (first compound max 2 µM, 7x7, partner max 1 µM) | 0.909 | 0.958 | 0.857 | 0.136 | 0.584 | 0.763 | 0.589 | 0.466 | 0.43 | 0.431 | 0.757 | 0.672 | 0.0497 | 0.786 | 0.686 | 0.939 | 1 | 0.476 | 0.643
9 | Cn1cnc2c(F)c(Nc3ccc(Br)cc3Cl)c(C(=O)NOCCO)cc21 [Selumetinib] + C=CCn1c(=O)c2cnc(Nc3ccc(N4CCN(C)CC4)cc3)nc2n1-c1cccc(C(C)(C)O)n1 [AZD1775] (first compound max 10 µM, partner max 1 µM) | 0.793 | 0.643 | 0.642 | 0.584 | 0.61 | 0.481 | 0.47 | 0.455 | 0.893 | 0.569 | 0.444 | 0.481 | 0.332 | 0.812 | 0.829 | 0.628 | 0.616 | 0.982 | 0.173
10 | CC(=O)c1c(C)c2cnc(Nc3ccc(N4CCNCC4)cn3)nc2n(C2CCCC2)c1=O [Palbociclib] + CC1(C)CCC(CN2CCN(c3ccc(C(=O)NS(=O)(=O)c4ccc(NCC5CCOCC5)c([N+](=O)[O-])c4)c(Oc4cnc5[nH]ccc5c4)c3)CC2)=C(c2ccc(Cl)cc2)C1 [Venetoclax] (first compound max 10 µM, 7x7, partner max 1 µM) | 0.343 | 0.527 | 0.217 | 0.507 | 0.279 | 0.431 | 0.437 | 0.147 | 0.219 | 0.308 | 0.04 | 0.298 | 0.37 | 0.494 | 0.797 | 0.49 | 0.976 | 0.889 | 0.223
11 | CC(=O)c1c(C)c2cnc(Nc3ccc(N4CCNCC4)cn3)nc2n(C2CCCC2)c1=O [Palbociclib] + Cn1cnc2c(F)c(Nc3ccc(Br)cc3Cl)c(C(=O)NOCCO)cc21 [Selumetinib] (first compound max 10 µM, 7x7, partner max 10 µM) | 0.811 | 0.616 | 0.403 | 0.462 | 0.427 | 0.469 | 0.485 | 0.259 | 0.289 | 0.395 | 0.396 | 0.614 | 0.282 | 0.809 | 0.65 | 0.599 | 0.806 | 0.264 | 0.223
12 | NC1(C(=O)N[C@@H](CCO)c2ccc(Cl)cc2)CCN(c2ncnc3[nH]ccc23)CC1 [Capivasertib] + CCN(CCO)CCCOc1ccc2c(Nc3cc(CC(=O)Nc4cccc(F)c4)[nH]n3)ncnc2c1 [AZD2811] (first compound max 10 µM, 7x7, partner max 1 µM) | 0.631 | 0.545 | 0.748 | 0.879 | 0.375 | 0.452 | 0.401 | 0.387 | 0.651 | 0.564 | 0.197 | 0.35 | 0.293 | 0.445 | 0.675 | 0.432 | 1 | 0.551 | 0.28
13 | CS(=O)(=O)CCNCc1ccc(-c2ccc3ncnc(Nc4ccc(OCc5cccc(F)c5)c(Cl)c4)c3c2)o1 [Lapatinib] + C[C@@H](Oc1cc(-c2cnn(C3CCNCC3)c2)cnc1N)c1c(Cl)ccc(F)c1Cl [Crizotinib] (first compound max 10 µM, 7x7, partner max 10 µM) | 0.926 | 0.916 | 1 | 0.703 | 0.941 | 0.94 | 0.537 | 0.853 | 0.691 | 0.91 | 0.688 | 0.711 | 0.936 | 0.912 | 0.843 | 0.934 | 0.983 | 0.57 | 0.366
